Assay results published in patent publication US20250177473A1, “PEPTIDE REGULATORS OF METABOLISM” (Metabico, Inc., priority 2022, published 2025).
Residues, ends and D or L forms follow the SMILES beside them.

Assays:
[1] = system: C57BL/6 mice on a high-fat diet; assay: Tolerability observations in HFD mice study; format: in vivo, mouse; conditions: EPSI 5 mg/kg i.n. and i.p.
Protocol: Groups of 10 animals were formed from the existing groups from Stage 2, with similar mean body weight (Table 6). The animals' bodyweight was monitored three times a week, water, and feed consumption—weekly. After the last treatment, the animals were euthanized for necropsy and their blood collected. The internal organs were examined for the presence of macro damage and weighed. The adipose tissue surrounding the epididymis was evaluated as a marker of obesity in animals. For histological examination, samples of adipose tissue and liver tissue were fixed in 10% formalin solution for further histological analysis.
During necropsy, the body's external state, internal surfaces, the cranial cavity, chest, abdominal and pelvic cavities with organs and tissues located in them, the neck with organs and tissues, the skeleton, and the musculoskeletal system were examined. The organs and tissues were fixed in 10% formalin. Liver and adipose tissue samples were weighed and stored in 10% formalin for subsequent histological analysis.

[2] = molecular target: T1, NPSR1 (the receptor of neuropeptide S) (Homo sapiens, UniProt Q6W5P4); assay: Full Functional GPCR Panel (Eurofins Cerep): NPSR1, intracellular Ca2+; format: cell-based; conditions: EPSI 100 μM; 10 nM NPS; HEK-293 cells expressing NPSR1
T1 construct: host or cells: HEK-293
T1 sequence (Q6W5P4 1-371): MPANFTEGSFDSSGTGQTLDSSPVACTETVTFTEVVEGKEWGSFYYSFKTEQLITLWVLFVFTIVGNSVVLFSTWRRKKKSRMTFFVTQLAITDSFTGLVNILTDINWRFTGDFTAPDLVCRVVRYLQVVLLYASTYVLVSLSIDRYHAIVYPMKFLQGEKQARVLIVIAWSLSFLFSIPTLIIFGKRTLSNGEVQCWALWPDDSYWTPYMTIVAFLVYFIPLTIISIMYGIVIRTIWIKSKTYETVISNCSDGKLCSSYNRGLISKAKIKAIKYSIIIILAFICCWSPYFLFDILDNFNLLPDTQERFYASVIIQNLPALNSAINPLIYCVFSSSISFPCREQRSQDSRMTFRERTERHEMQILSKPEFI
Protocol: (§1) EPSI peptide was tested in the dose of 100 μM in 326 functional assays (163 GPCRs both in agonist and antagonist modes) combined in Full Functional GPCR Panel (item P343) provided by Eurofins Cerep SA.
(§2) Each cell-based assay was performed by application of the peptide to cell lines expressing individual receptors with subsequent measuring Ca2+, IP1, or cAMP depending on the receptor type. In the case of antagonist mode assays, the peptide was applied together with the control agonist.
(§3) Cellular agonist effect was calculated as a % of control response to a known reference agonist for each target and cellular antagonist effect was calculated as a % inhibition of control reference agonist response for each target.
EPSI peptide induced activating effect provided by 10 nM of control agonist NPS (neuropeptide S) by 56.4±8.5% in HEK-293 cells expressing NPSR1 (the receptor of neuropeptide S). Activation of NPSR1 was measured by the changes in intracellular Ca2+ levels.

[3] = molecular target: T2, M2 muscarinic receptor (Homo sapiens, UniProt P08172); assay: Full Functional GPCR Panel: M2 muscarinic receptor, cAMP; format: cell-based; conditions: EPSI 100 μM; vs 3 μM acetylcholine; CHO cells expressing M2
T2 construct: host or cells: CHO
T2 sequence (P08172 1-466): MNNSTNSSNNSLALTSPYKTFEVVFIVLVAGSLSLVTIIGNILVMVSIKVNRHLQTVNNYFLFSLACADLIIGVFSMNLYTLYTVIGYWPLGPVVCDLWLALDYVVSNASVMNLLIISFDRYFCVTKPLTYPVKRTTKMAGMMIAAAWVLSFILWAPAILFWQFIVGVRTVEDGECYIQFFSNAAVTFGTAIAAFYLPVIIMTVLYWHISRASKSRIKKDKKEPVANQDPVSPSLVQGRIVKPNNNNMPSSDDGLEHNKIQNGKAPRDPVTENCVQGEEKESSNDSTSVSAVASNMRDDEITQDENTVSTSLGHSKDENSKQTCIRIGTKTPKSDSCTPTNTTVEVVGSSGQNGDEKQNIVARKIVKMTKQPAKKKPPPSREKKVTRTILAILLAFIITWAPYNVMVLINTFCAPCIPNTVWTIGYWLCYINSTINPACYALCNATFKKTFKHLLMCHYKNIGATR
Protocol: as §1, §2, §3

[4] = molecular target: T3, GPR109A receptor (Homo sapiens, UniProt Q8TDS4); assay: Full Functional GPCR Panel: GPR109A antagonist mode; format: cell-based; conditions: EPSI 100 μM; 300 nM nicotinic acid; RBL cells expressing GPR109A
T3 construct: host or cells: RBL
Protocol: as §1, §2, §3

[5] = molecular target: T4, FFAR2 (GPR43) receptor (Homo sapiens, UniProt O15552); assay: FFAR2 cell-based functional antagonist assay, intracellular Ca2+; conditions: EPSI 100 μM; 1 mM sodium acetate; HEK-293 cells expressing FFAR2
T4 construct: host or cells: HEK-293
T4 sequence (O15552 1-330): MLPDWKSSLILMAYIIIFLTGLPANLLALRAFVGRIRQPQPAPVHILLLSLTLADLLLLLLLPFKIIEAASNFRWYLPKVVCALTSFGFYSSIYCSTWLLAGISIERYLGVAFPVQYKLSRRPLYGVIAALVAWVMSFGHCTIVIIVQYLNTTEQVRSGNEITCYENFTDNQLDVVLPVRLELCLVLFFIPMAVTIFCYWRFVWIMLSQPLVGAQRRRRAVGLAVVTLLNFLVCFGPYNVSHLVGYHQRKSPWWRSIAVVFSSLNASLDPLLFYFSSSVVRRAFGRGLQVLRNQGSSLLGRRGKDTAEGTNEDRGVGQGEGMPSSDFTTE
Protocol: as §1, §2, §3
EPSI peptide acted as antagonist of FFAR2 (GPR43) receptor reducing by 28.0±1.5% the signal induced by 1 mM of sodium acetate in HEK-293 cells expressing FFAR2.
EPSI peptide was tested in the doses of 0.03, 0.16, 4, and 20 μM in FFAR2 cell-based functional antagonistic assay provided by Eurofins Cerep SA. The assay was performed in HEK-293 cell line expressing FFAR2 and stimulated with 1 mM sodium acetate (control reference agonist) for FFAR2 signaling induction. Fluorimetric measurement of intracellular Ca2+ levels was performed after the peptide application. Cellular antagonist effect was calculated as a % inhibition of control reference agonist response.

[6] = molecular target: T5, LPAR3 (Homo sapiens, UniProt Q9UBY5); assay: Full Functional GPCR Panel: LPAR3; format: cell-based; conditions: EPSI 100 μM; 30 nM Lysophosphatidic acid; CHO cells expressing LPAR3
T5 construct: host or cells: CHO
T5 sequence (Q9UBY5 1-353): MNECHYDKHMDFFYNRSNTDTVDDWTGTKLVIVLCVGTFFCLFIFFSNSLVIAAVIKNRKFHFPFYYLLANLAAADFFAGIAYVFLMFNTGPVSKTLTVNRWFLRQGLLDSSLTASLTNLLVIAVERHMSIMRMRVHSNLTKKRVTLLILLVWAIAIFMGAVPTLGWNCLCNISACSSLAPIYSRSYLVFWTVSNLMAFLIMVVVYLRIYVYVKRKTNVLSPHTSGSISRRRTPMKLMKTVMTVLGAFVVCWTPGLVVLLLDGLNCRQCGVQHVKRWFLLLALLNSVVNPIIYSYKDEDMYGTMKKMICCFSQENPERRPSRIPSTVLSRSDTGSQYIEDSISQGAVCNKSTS
Protocol: as §1, §2, §3
EPSI peptide induced activating effect provided by 30 nM of control agonist Lysophosphatidic acid by 29.2±3.0% in CHO cells expressing LPAR3.

[7] = system: pStat3 (Y705) in the hypothalamus; assay: pStat3 (Y705) immunohistochemistry of mouse hypothalamus after administration; format: in vivo, C57Bl/6J mice; conditions: 60 minutes after administration; EPSI 10 mg/kg intranasally; leptin 5 mg/mL intraperitoneally; 24 h food deprivation
Protocol: Fifteen C57Bl/6J 15 weeks old mice (5 animals per group) were used in the study.
We performed food deprivation 24 hours prior to the administration of the compounds. The animals of the experimental group were administered with 10 mg/kg EPSI intranasally (EPSI was dissolved in 10 μL of saline per mouse, 5 μL in each nostril). Positive control animals were administered with 5 mg/mL leptin intraperitoneally (leptin was dissolved in 100 μL of saline per mouse). Negative control mice were administered with 100 μL of saline intraperitoneally. The mice were euthanized 60 minutes after the administration of the compounds.
Narcosis was performed using the combination of Zoletil (20 mg/kg) and Rometar (5 mg/kg). Next, transcardial perfusion was performed with saline to wash out the blood, then with a 10% formalin solution. After complete fixation, the animal bodies were decapitated, the brain was extracted and additionally fixed in 10% formalin, after which it was washed in PBS 3 times for 30 minutes and placed overnight in a 30% sucrose solution in PBS until the tissue was completely impregnated.
The brain samples were placed in a mold, and poured with the freezing medium. […]
The images were received using an inverted microscope Nikon Eclipse Ni. The number of positive cells was calculated using ImageJ software. […]

[8] = system: male mice of CBA and C57Bl/6 hybrids, food deprived 12 hours; assay: Home cage feed consumption test; format: in vivo, mouse; conditions: leptin 1 mg/kg i.p. before testing
Protocol: The work was performed on 30 mature male mice of the first generation of CBA and C57Bl/6 hybrids weighing 22-24 grams. The animals were divided into treatment groups (Table 1).
Solutions for intranasal (i.n.) administration were prepared by dissolving the peptide in saline. The volume of i.n. administration: 1 μl per 1 g of animal weight. Solutions for intraperitoneal (i.p.) administration were prepared by dissolving the drug in saline. The volume of […]. administration: 10 μl per 1 g of animal weight. Solutions were prepared directly on the day of the experiment before the experiment.
All manipulations with animals were performed at the end of the adaptation period of 14 days.
Day 1—Adaptation of animals to the home cage food consumption test. In the evening, animals were deprived of food for 12 hours (overnight).
Day 2—Administration of the test substances and the food consumption test in a home cage for 1.5 hours. Before and after the test, the animals were weighed.
This test was performed to assess the appetite of animals after the treatment with tested compounds. The test was performed in 2 days. […]
Statistical data processing was carried out using nonparametric criteria (Mann-Whitney) for samples with a distribution other than normal. Normally distributed data were analyzed with one-way ANOVA (only Treatment factor) or repeated measures ANOVA (dynamics) with post hoc Fisher test. […]

T3 sequence (Q8TDS4 whole entry): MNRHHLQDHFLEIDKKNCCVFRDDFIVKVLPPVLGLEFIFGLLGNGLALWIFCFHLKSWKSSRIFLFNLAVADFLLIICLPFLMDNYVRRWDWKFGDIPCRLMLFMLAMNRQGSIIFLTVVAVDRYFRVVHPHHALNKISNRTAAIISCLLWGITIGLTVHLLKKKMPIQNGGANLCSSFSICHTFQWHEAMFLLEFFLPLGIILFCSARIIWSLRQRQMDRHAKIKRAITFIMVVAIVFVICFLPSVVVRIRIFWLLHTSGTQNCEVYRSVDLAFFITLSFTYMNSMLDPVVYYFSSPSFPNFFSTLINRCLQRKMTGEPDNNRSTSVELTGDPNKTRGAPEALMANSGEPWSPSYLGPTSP

| Compound | local irritating effect (nasal mucosa; abdominal wall skin and subcutaneous tissue) [1] | toxic effects throughout the experiment ([1]; up to 28 days) | induction of activating effect of control agonist NPS (intracellular Ca2+) [2] [%] | reduction of cAMP levels, efficiency compared to control agonist [3] [%] | reduction of signal evoked by nicotinic acid (antagonist mode) [4] [%] | reduction of signal induced by sodium acetate (antagonist mode) [5] [%] | induction of activating effect of control agonist Lysophosphatidic acid [6] [%] | pStat3-positive cells in hypothalamic sections (ratio to total nuclei) [7] [%] | amount of food consumed over 90 minutes vs control [8] |
| --- | --- | --- | --- | --- | --- | --- | --- | --- | --- |
| CC[C@H](C)[C@H](NC(=O)[C@H](CO)NC(=O)[C@@H]1CCCN1C(=O)[C@@H](N)CCC(=O)O)C(=O)O [EPSI] (H-EPSI-OH) | no local irritating effect | no toxic effects | 56.4±8.5 | 26.8±6.8 | 37.1±2.1 | 28.0±1.5 | 29.2±3.0 |  |  |
| leptin |  |  |  |  |  |  |  | 3 | did not differ |
